Measurements from the supplement of paper PMC10307832.

Legend:
Test in all cases: relative viability (nuclei count vs DMSO), 5 days (fraction); higher = more cells survive
QS11 + Pictilisib = compound: C1CC2=C(C1)C=C(C=C2)OC3=NC(=C4C(=N3)N(C=N4)CC5=CC=C(C=C5)C6=CC=CC=C6)N[C@@H](CC7=CC=CC=C7)CO [QS11] + CS(=O)(=O)N1CCN(Cc2cc3nc(-c4cccc5[nH]ncc45)nc(N4CCOCC4)c3s2)CC1 [Pictilisib] (partner 1 µM)
How it was run: (§1)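 Values are medians from duplicate plates. Each reflects relative viability, defined as the nuclei count of treated wells over that of vehicle wells. Lung cancer cell lines in 1536-well plates were pin-tool dosed one day after seeding with one drug alone or with a fixed anchor-drug dose plus five library-drug doses (not always all listed) in √10 steps, then fixed, stained and imaged at 4× after 5 days.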

AZ628 + Lapatinib = compound: CC1=C(C=C(C=C1)NC(=O)C2=CC(=CC=C2)C(C)(C)C#N)NC3=CC4=C(C=C3)N=CN(C4=O)C [AZ628] + CS(=O)(=O)CCNCc1ccc(-c2ccc3ncnc(Nc4ccc(OCc5cccc(F)c5)c(Cl)c4)c3c2)o1 [Lapatinib] (partner 2 µM)
How it was run: as §1

[1] = compound: C[As](C)SC[C@H](NC(=O)CC[C@H](N)C(=O)O)C(=O)NCC(=O)O [Darinaparsin] + CC1(C)CCC(c2ccc(Cl)cc2)=C(CN2CCN(c3ccc(C(=O)NS(=O)(=O)c4ccc(N[C@H](CCN5CCOCC5)CSc5ccccc5)c(S(=O)(=O)C(F)(F)F)c4)cc3)CC2)C1 [Navitoclax] (partner 0.5 µM)
How it was run: as §1

[2] = compound: C[As](C)SC[C@H](NC(=O)CC[C@H](N)C(=O)O)C(=O)NCC(=O)O [Darinaparsin] + C[C@]1(O)C[C@@H](c2nc(-c3ccc4ccc(-c5ccccc5)nc4c3)c3c(N)nccn32)C1 [Linsitinib] (partner 1 µM)
How it was run: as §1

Row | Cell Line | relative viability (QS11 + Pictilisib; first compound 0.08 µM) | relative viability (QS11 + Pictilisib; first compound 0.253 µM) | relative viability (QS11 + Pictilisib; first compound 0.8 µM) | relative viability (QS11 + Pictilisib; first compound 2.53 µM) | relative viability (QS11 + Pictilisib; first compound 8 µM) | relative viability (AZ628 + Lapatinib; first compound 0.08 µM) | relative viability (AZ628 + Lapatinib; first compound 0.253 µM) | relative viability (AZ628 + Lapatinib; first compound 0.8 µM) | relative viability (AZ628 + Lapatinib; first compound 2.53 µM) | relative viability (AZ628 + Lapatinib; first compound 8 µM) | relative viability ([1]; first compound 0.08 µM) | relative viability ([1]; first compound 0.8 µM) | relative viability ([1]; first compound 2.53 µM) | relative viability ([1]; first compound 8 µM) | relative viability ([2]; first compound 0.08 µM) | relative viability ([2]; first compound 0.8 µM) | relative viability ([2]; first compound 2.53 µM) | relative viability ([2]; first compound 8 µM)
1 | LC-2-ad | 0.506 | 0.478 | 0.441 | 0.534 | 0.547 | 0.949 | 0.867 | 0.446 | 0.72 | 0.474 | 0.551 | 0.324 | 0.421 | 0.487 | 0.98 | 0.808 | 0.812 | 0.843
2 | 201T | 0.669 | 0.599 | 0.634 | 0.672 | 0.611 | 1.01 | 0.988 | 1.06 | 1.12 | 1.18 | 1.21 | 1.15 | 1.19 | 1.12 | 1.04 | 1.03 | 1.04 | 1.06
3 | NCI-H2023 | 0.255 | 0.224 | 0.291 | 0.309 | 0.283 | 0.914 | 0.859 | 0.914 | 0.763 | 0.689 | 1.08 | 1.07 | 0.951 | 1.2 | 0.7 | 0.669 | 0.604 | 0.858
4 | HOP-62 | 0.822 | 0.688 | 0.738 | 0.514 | 0.435 | 1.12 | 0.978 | 1.01 | 0.957 | 0.631 | 1.39 | 1.2 | 0.963 | 1.13 | 1.25 | 0.94 | 0.899 | 1.02
5 | NCI-H1734 | 0.44 | 0.433 | 0.408 | 0.38 | 0.358 | 1.08 | 1.07 | 0.896 | 0.908 | 0.699 | 1.07 | 0.947 | 0.806 | 1.11 | 1.23 | 0.917 | 0.674 | 0.932
6 | EKVX | 0.444 | 0.379 |  | 0.413 | 0.467 | 0.232 | 0.206 | 0.216 | 0.219 | 0.257 | 1.14 | 0.825 | 0.918 | 1.15 | 1.33 | 0.902 | 0.969 | 1.2
7 | NCI-H1355 | 0.399 | 0.299 | 0.378 | 0.475 | 0.443 | 0.974 | 0.934 | 0.947 | 0.944 | 0.862 | 1.08 | 0.94 | 0.836 | 1.05 | 0.805 | 0.746 | 0.686 | 0.838
8 | Calu-6 | 1.02 | 0.907 | 0.918 | 1.15 | 1 | 1.2 | 0.981 | 0.629 | 0.844 | 0.222 | 1.13 | 0.921 | 0.752 | 0.745 | 1.06 | 1.06 | 0.815 | 1.05
9 | H3255 | 0.37 | 0.523 |  | 0.541 | 0.537 | 0.258 | 0.256 | 0.292 | 0.269 | 0.251 | 0.542 | 0.513 | 0.458 | 0.674 | 0.995 | 0.96 | 0.86 | 1.16
10 | IA-LM | 0.387 | 0.343 |  | 0.257 | 0.354 | 0.881 | 0.831 | 0.315 | 0.373 | 0.2 | 1.15 | 0.974 | 0.969 | 0.739 | 0.949 | 0.8 | 0.533 | 0.681
11 | NCI-H23 | 0.394 | 0.413 | 0.405 | 0.433 | 0.361 | 1.18 | 0.958 | 0.698 | 0.722 | 0.528 | 1.09 | 0.917 | 0.963 | 1.02 | 0.661 | 0.635 | 0.482 | 0.685
12 | NCI-H1755 | 0.466 | 0.404 | 0.41 | 0.408 | 0.393 | 0.99 | 0.951 | 0.96 | 1.04 | 1.02 | 1.08 | 0.967 | 0.941 | 1.2 | 1.07 | 0.969 | 1.02 | 1.13
13 | NCI-H1437 | 0.421 | 0.468 | 0.38 | 0.41 | 0.399 | 0.858 | 0.735 | 0.738 | 0.94 | 0.97 | 1.54 | 1.1 | 0.962 | 1.33 | 1.52 | 1.14 | 0.888 | 1.29
14 | NCI-H460 | 0.301 | 0.351 | 0.532 | 0.352 | 0.473 | 1.08 | 0.868 | 0.853 | 0.87 | 0.559 |  | 1.05 | 0.978 | 1.91 | 0.814 | 1.04 | 0.713 | 1.22
15 | HARA | 0.358 | 0.46 |  | 0.383 | 0.36 | 0.742 | 0.633 | 0.57 | 0.671 | 0.488 | 1.39 | 1.07 | 1.08 | 1.37 | 1.38 | 0.852 | 0.75 | 1.19
16 | NCI-H2085 | 0.432 | 0.404 | 0.456 | 0.432 | 0.519 | 0.824 | 0.685 | 0.795 | 0.741 | 0.743 | 1.36 | 1.18 | 1.09 | 1.2 | 0.935 | 0.864 | 0.889 | 1.05
17 | NCI-H1395 |  | 0.614 | 0.772 | 0.645 | 0.619 | 1.04 | 1 | 0.942 | 0.933 | 0.916 | 1.15 | 1.06 | 1.03 | 0.902 | 1.01 | 0.995 | 0.97 | 0.991
18 | RERF-LC-KJ | 0.628 | 0.563 | 0.506 | 0.517 | 0.497 | 0.825 | 0.837 | 0.846 | 0.839 | 0.888 | 1.08 | 0.92 | 0.749 | 1.08 | 1.03 | 0.979 | 0.876 | 0.946
19 | HCC-78 | 0.206 | 0.185 | 0.206 | 0.222 | 0.29 | 0.81 | 0.725 | 0.961 | 0.703 | 0.479 | 0.841 | 0.729 | 0.842 | 0.84 | 0.502 | 0.56 | 0.588 | 0.424
20 | NCI-H2087 | 0.799 | 0.836 | 0.926 | 1.03 | 1.13 | 0.795 | 0.799 | 0.636 | 0.865 | 0.41 | 1.3 | 1.04 | 1.01 | 1.13 | 1.07 | 0.997 | 1.01 | 0.94
21 | A549 | 0.623 | 0.558 | 0.396 | 0.41 | 0.208 | 1.13 | 0.839 | 0.676 | 0.835 | 0.536 | 1.42 | 1.29 | 1.16 | 1.33 | 0.756 | 0.612 | 0.389 | 0.632
22 | SK-LU-1 | 0.455 | 0.679 | 0.534 | 0.552 | 0.531 | 0.498 | 0.705 | 0.755 | 0.834 | 0.603 | 0.986 | 0.807 | 0.671 | 1.02 | 1.35 | 0.976 | 1.07 | 1.35
23 | EMC-BAC-2 | 0.535 | 0.486 | 0.569 | 0.604 | 0.442 | 0.9 | 0.853 | 0.817 | 0.844 | 0.933 | 1.24 | 1.14 | 1 | 1.72 | 0.862 | 0.758 | 0.773 | 0.965
24 | EBC-1 | 0.331 | 0.266 | 0.404 | 0.454 | 0.478 | 0.219 | 0.205 | 0.251 | 0.22 | 0.199 | 0.4 | 0.351 | 0.375 | 0.352 | 1.12 | 0.942 | 0.864 | 1.15
25 | A-427 | 0.546 | 0.788 |  | 0.608 | 0.824 | 1.1 | 0.599 | 0.99 | 1.06 | 0.773 | 0.961 | 1 | 1.03 | 0.98 | 1.2 | 1.09 | 1.13 | 1.12
26 | NCI-H727 | 0.355 | 0.304 | 0.407 | 0.279 | 0.229 | 0.484 | 0.472 | 0.415 | 0.326 | 0.296 | 0.405 | 0.447 | 0.472 | 0.393 | 0.3 | 0.225 | 0.319 | 0.354
27 | COR-L23 | 0.807 | 0.717 | 0.806 | 0.662 | 0.681 | 1.11 | 1.05 | 1.04 | 0.968 | 0.683 | 1.38 | 1.12 | 0.945 | 1.16 | 1.24 | 0.886 | 0.859 | 1.02
28 | NCI-H1299 | 0.725 | 0.791 | 0.648 | 0.736 | 0.567 | 1.11 | 1.2 | 1.17 | 1.23 | 0.945 | 1.03 | 1.08 | 1.04 | 1.1 | 1.1 | 1 | 0.912 | 1.2
29 | PC-3 [JPC-3] | 0.699 | 0.652 | 0.707 | 0.648 | 0.601 | 0.488 | 0.5 | 0.52 | 0.47 | 0.471 | 0.832 | 0.748 | 0.767 | 0.825 | 0.961 | 0.955 | 1.06 | 1.05
30 | NCI-H520 |  | 0.343 | 0.27 | 0.321 | 0.275 | 0.901 | 0.857 | 0.743 | 0.778 | 0.766 | 1.41 | 0.976 | 1.17 | 1.11 | 1.02 | 1.08 | 0.863 | 0.985
